Data published in paper PMC11898701, “Evaluating Therapeutic Efficacy of the Vascular Disrupting Agent OXi8007 Against Kidney Cancer in Mice” (Cancers, 2025).

Assays:
[1] = tested on: orthotopic Renca-luc tumors; assay: Acute response by dynamic bioluminescence imaging (BLI) and histology; type: in vivo, mouse
Protocol: Anesthesia was induced with 1–3% isoflurane, and the mice were placed on the warmed imaging stage of an IVIS Spectrum® small animal imaging system (Xenogen/PerkinElmer Inc., Waltham, MA, USA) with continuous exposure to 1 to 2% isoflurane, as described previously. On successive occasions, mice were administered 75 µL of D-luciferin (sodium salt; Gold Biotechnology, St. Louis, MO, USA) SC in the fore back neck region as a 40 mg/mL solution in 0.9% saline. The BLI signal was quantified as the total flux using Living Image Software 4.3.7. Fresh luciferin was administered 4 and 24 h after drug administration to reveal acute changes in tumor perfusion.
Acute effects of OXi8007 were examined on Renca-luc tumor-bearing mice using BLI (n = 8) and MSOT (n = 6) by comparing images at the baseline [pre (0 h)] and following OXi8007 administration (IP) at 4 h and 24 h. Dynamic BLI images were acquired every minute over the course of 15–20 min immediately following luciferin injection. For MSOT, the same mice underwent a gas breathing challenge for 5 min in air (21% O2), 7 min in O2 (100% O2), followed by 3 min in air at 0 h, 4 h, and 24 h post-treatment.

Ewing sarcoma = tested on: Ewing sarcoma; design: method as in PMID 19136249; conditions: 200 mg/kg twice weekly; cited from earlier work
Renca cells = assay: Microtubule disruption and cell morphology in Renca cells; type: cell-based, mouse; conditions: 2.5 and 5 µM
Protocol: Renca cells were plated in cell culture-treated 96-well plates (Grenier Bio-One North America Inc., Monroe, NC, USA) at 2000 cells/well and allowed to adhere for 24 h before treatment. Hoechst 33342 (1 μg/mL) in complete RPMI 1640 medium was used to stain the cell nuclei for 15 min at 37 °C. […] The medium was removed to reduce background fluorescence, followed by two wash cycles with fresh medium. Fresh medium containing 25 μM of verapamil hydrochloride was added to the stained cells prior to imaging. Images of the microtubule cytoskeleton and nuclei were collected over 3 h using a Biotek Lionheart microscope ELx800 in fluorescence mode with a 20× objective.

[2] = tested on: orthotopic Renca-luc tumors; assay: Acute response by oxygen-enhanced MSOT; type: in vivo, mouse
Protocol: For the multispectral optoacoustic tomography (MSOT), an iThera InVision 256-TF device with seven wavelengths (700, 730, 760, 780, 800, 820, and 875 nm) was used. Mice were shaved and depilated around the tumor region. The anesthetized mouse (1–2% isoflurane) was placed in the imaging chamber (34 °C) for 10 min to reach thermal equilibrium before imaging a single slice showing the largest cross-section of the tumor. An oxygen gas breathing challenge was performed to assess the dynamic changes in blood oxygenation. Images were generated using ViewMSOT version 4.2 with a back projection-based reconstruction algorithm followed by built-in fluence correction. Oxy- and deoxyhemoglobin were resolved using a linear regression approach.
Oxygen saturation (sO2) maps were analyzed using MATLAB 2022b (MathWorks Inc., Natick, MA, USA), and the images were visualized with Fiji. The percentage of hemoglobin saturation (sO2) was calculated as follows:[…]
Blank pixels represent areas lacking a detectable hemoglobin signal. The average sO2^MSOT was calculated pixelwise in each ROI for the air and oxygen breathing periods as sO2^MSOT (Air) and sO2^MSOT (O2), and the response to the oxygen gas challenge was as follows:∆sO2 = sO2 (O2) − sO2 (Air)(2) […]

COc1ccc2c(C(=O)c3cc(OC)c(OC)c(OC)c3)c(-c3ccc(OC)c(OP(=O)(O)O)c3)[nH]c2c1 [OXi8007]
BLI signal relative to baseline ([1]; 4 h after OXi8007 250 mg/kg IP, 8 mice): < 2 % baseline | Histology of tumor ([1]; Renca-luc, within 4 h post-treatment): extensive intratumoral hemorrhage | Vascular shutdown (BLI) ([1]; within 4 h, orthotopic kidney tumors): > 98% | Tumor growth delay (Ewing sarcoma): no tumor growth delay | Effect on microtubule structure (Renca cells): rapid progressive loss of microtubule structure | Period of vascular hypoxiation to plateau (MSOT) ([2]; 350 mg/kg IP in situ using a catheter, while breathing O2): about 30 min | Time to hypoxiation (photoacoustic imaging) ([2]; after intraperitoneal administration): ≤ 30 min
